Results published in paper PMC11435438, “Cyclin-Dependent Kinase 8 Represents a Positive Regulator of Cytomegalovirus Replication and a Novel Host Target for Antiviral Strategies” (Pharmaceutics, 2024).
Where two headings read alike, the source gives them in different places.

Assays:
HCMV AD169-GFP = assay: microbe, parasite or virus in culture; assay type: cell-based, human cytomegalovirus
Experimental: (§1) (i.e., 1 × TCID25/7d). Immediately after virus adsorption, the cells were treated with antiviral compounds or solvent control (DMSO). Infections were performed in biological quadruplicates, or as indicated for individual experiments. The cells were fixed by the addition of 150 µL 10% formalin/well 7 d p.i. (Merlin-GFP 14 d p.i.), and washed with PBS. For GFP or YFP quantitation, the Victor X4 microplate reader (PerkinElmer, Waltham, MA, USA) was primarily used, or as a very sensitive alternative, the ImageXpress® Pico device (Molecular Devices LLC, San Jose, CA, USA). Mean EC50 values of antiviral efficacy were calculated on the basis of three experimental replicates or as indicated (measurement of fluorescence values in quadruplicate), and percentage values were provided relative to the solvent control (DMSO).

HCMV TB40-YFP = HCMV TB40-YFP replication assay in U373 cells; assay type: cell-based, human cytomegalovirus; settings: Human betaherpesvirus 5, U373 MG, read-out: EC50 TB40-YFP
Experimental: as §1

RhCMV-GFP = RhCMV-GFP replication assay in HFFs; assay type: cell-based, rhesus cytomegalovirus; settings: in Macaca mulatta, read-out: EC50 RhCMV
From the text: (§2) Similarly, 2 × 10^4 primary embryonic guinea pig fibroblasts GPEFs/96-well, or 1.35 × 10^4 HFFs/96-well, or 2 × 10^4 rat REFs/96-well, or 2 × 10^4 murine MEFs/96-well, were cultivated for infection with GPCMV-GFP, RhCMV-GFP, ChCMV, RCMV-mCherry, or MCMV-GFP, respectively (all approx. MOI of 0.01 referring to 1 × TCID25), and were used for the assessment of antiviral drug activity. To this end, cells were fixed 7 d p.i. (RCMV-mCherry 4 d p.i.), before GFP or mCherry expression was quantified using the Victor X4 microplate reader, or other viral replication markers were measured as explained for the individual experiments. ChCMV replication in HFFs was monitored and quantified by the use of Anti-Cytomegalovirus Antibody Alexa Fluor™ 488. For immunofluorescence staining with Anti-Cytomegalovirus Antibody Alexa Fluor™ 488 (Sigma Aldrich, St. Louis, MO, USA; solution in PBS with 1% FCS), the infected cells were fixed at 7 d p.i. with 10% formalin and permeabilized with 0.2% Triton-x-100. Cell nuclei were counterstained using Höchst dye to be measured using the ImageXpress Pico (Molecular Devices, LLC, San Jose, CA, USA). Mean EC50 values of antiviral efficacy were calculated on the basis of three experimental replicates or as indicated (measurement of fluorescence values in quadruplicate), and percentage values were provided relative to the solvent control (DMSO).

ChCMV strain Herberling = assay: ChCMV replication assay in HFFs (immunofluorescence); assay type: cell-based, chimpanzee cytomegalovirus; settings: in Pan troglodytes, n = 2
From the text: as §2

MCMV-GFP = MCMV-GFP replication assay in MEFs; assay type: cell-based, murine cytomegalovirus; settings: Murid betaherpesvirus 1, read-out: EC50 MCMV
From the text: as §2

RCMV-mCherry = RCMV-mCherry replication assay in REFs; assay type: cell-based, rat cytomegalovirus; settings: in Rattus norvegicus, read-out: EC50 RCMV
From the text: as §2

GPCMV-GFP = GPCMV-GFP replication assay in GPEFs; assay type: cell-based, guinea pig cytomegalovirus; settings: Caviid betaherpesvirus 2, read-out: EC50 GPCMV
From the text: as §2
To address cell viability after compound treatment, a NR uptake assay was performed. Uninfected cells were seeded at equal numbers as for antiviral replication assays and treated with compounds or solvent control. […] NR fluorescence was quantified using the Victor X4 microplate reader (PerkinElmer, Waltham, MA, USA) (560/630 nm). For the AB cell viability assay, which was also used to quantify virus-induced cytopathogenicity (particularly in the case of GPCMV in GPEFs), cells were seeded at equal numbers as for antiviral replication assays and incubated with a medium containing 25 ng/mL AB (resazurin; Ann Arbor, MI, USA), incubated for 6 h at 37 °C, and used for measurement identical with NR.

[1] = Human betaherpesvirus 5, AD169, HFF, read-out: EC50 AD169-GFP
[2] = Human betaherpesvirus 5, AD169, read-out: EC50 HCMV

| Compound | EC50 (HCMV AD169-GFP; [1]) [nM] | EC50 (HCMV AD169-GFP; [2]) [nM] | EC50 (HCMV TB40-YFP) [nM] | EC50 (RhCMV-GFP) [nM] | EC50 (ChCMV strain Herberling) [nM] | EC50 (MCMV-GFP) [nM] | EC50 (RCMV-mCherry) [nM] | EC50 (GPCMV-GFP) [nM] |
| --- | --- | --- | --- | --- | --- | --- | --- | --- |
| CN(C)C(=O)Cn1cc(-c2ccc(-c3cncc4ccccc34)cc2)cn1 [BI-1347] | 0.93 ± 0.67 | 0.93 ± 0.67 | 19.3 ± 21 | 0.4 ± 0.48 | 11.6 ± 22.6 | 1.57 ± 1.71 | 1.08 ± 1.49 | 1.11 ± 2.37 |
| Cn1ncc2cc(-c3cnc(N)c(Cl)c3N3CCC4(CCNC4=O)CC3)ccc21 [CCT-151921] | 3.9 ± 2 | 3.9 ± 2 | 8.5 ± 11.1 | 2.48 ± 1.63 | 31 ± 18 | 2.65 ± 4.5 | 11.2 ± 22.7 | 19.4 ± 33.2 |
| Cc1n[nH]c2ncc(C(=O)N3CCC[C@H]3c3ccc(Cl)cc3)cc12 [MSC-2530818] | 1.21 ± 0.77 | 1.21 ± 0.77 | 12.3 ± 11.3 | 2.17 ± 1.37 | 21 ± 26.5 | 1.8 ± 1.99 | 4.87 ± 4.67 | 4.48 ± 4.84 |
